What was measured:
E. coli HB101 = assay: Broth microdilution MIC / growth inhibition; format: cell-based, Escherichia coli; settings: 18 h at 37 °C; for MIC: E. coli HB101, broth microdilution in MHB, OD600nm, at least three independent replicates, range 0.39–100 mg/L; for growth inhibition (complete inhibition): E. coli, within tested range 0.39–100 mg/L
Experimental: (§1) The antibacterial activity of free CM4 and Synoeca was evaluated by determination of the minimum inhibitory concentration (MIC) against Gram-negative (E. coli HB101, P. aeruginosa ATCC10145, B. cenocepacia IST439, B. cenocepacia IST4113, and K. pneumoniae) and Gram-positive (S. aureus ATCC6538 and S. epidermidis) bacteria. The AMPs were incubated with bacterial suspensions and assessed for bacterial growth, with the MIC defined as the lowest concentration of AMPs that inhibited the visible growth of bacteria (Figure 5).
(§2) E. coli XL1-Blue and BL21(DE3) strains were used for the cloning and production steps, respectively. E. coli HB101, S. aureus ATCC6538, P. aeruginosa ATCC10145, B. cenocepacia IST439, B. cenocepacia IST4113, and clinical isolates of K. pneumoniae and S. epidermidis were used in the broth microdilution MIC assays. The clonal variants of B. cenocepacia were isolated, with a 3-year difference, from the same cystic fibrosis (CF) patient.
(§3) The antibacterial activity of the isolated AMPs was assessed via broth microdilution method to determine the MIC against clinically relevant Gram-negative and Gram-positive bacteria—E. coli HB101, P. aeruginosa ATCC10145, B. cenocepacia IST439, B. cenocepacia IST4113, K. pneumoniae isolate, S. aureus ATCC6538 and S. epidermidis isolate—following the European Committee on Antimicrobial Susceptibility Testing (EUCAST) and the Clinical Laboratory Standards Institute (CLSI) guidelines. A detailed description of the method is provided by Wiegand et al.. Briefly, stock solutions of 2 mg/mL of AMP in sterile mQ water were used for the preparation of two-fold serial dilutions in MHB, to obtain final testing concentrations within the range of 0.39–100 mg/L (200 mg/L for B. cenocepacia strains). For the MIC assays, 50 μL of protein solution and 50 μL of bacterial suspensions in MHB (1 × 10^6 CFUs/mL) were mixed in 96-well plates (Nunc™ Edge 2.0 96-well plates, Thermo Scientific™, Waltham, Massachusetts, EUA) and incubated for 18 h at 37 °C. Growth inhibition was assessed by measuring optical density at 600 nm (OD600nm). The MIC was determined as the lowest concentration of antimicrobial peptide that inhibited the visible growth of the testing bacteria. At least three independent replicates were performed for each peptide and bacterial strain. Data were analysed by GraphPad Prism 6 Software (GraphPad Software, Inc., La Jolla, CA, USA).

S. aureus ATCC6538 = assay: Broth microdilution MIC / growth inhibition; format: cell-based, Staphylococcus aureus; settings: 18 h at 37 °C; for MIC: S. aureus ATCC6538, broth microdilution in MHB, OD600nm, at least three independent replicates, range 0.39–100 mg/L; for growth inhibition (complete inhibition): S. aureus, within tested range 0.39–100 mg/L
Experimental: as §1, §2, §3

K. pneumoniae isolate = assay: Broth microdilution MIC / growth inhibition; format: cell-based, Klebsiella pneumoniae; settings: 18 h at 37 °C, OD600nm; for MIC: K. pneumoniae clinical isolate, broth microdilution in MHB, at least three independent replicates, range 0.39–100 mg/L
Experimental: as §1, §2
as §3, with “For the MIC assays, 50 μL of protein solution and 50 μL of bacterial suspensions in MHB (1 × 10^6 CFUs/mL) were mixed in 96-well plates (Nunc™ Edge 2.0 96-well plates, Thermo Scientific™, Waltham, Massachusetts, EUA) and incubated for 18 h at 37 °C.” left out, “At least three independent replicates were performed for each peptide and bacterial strain.” left out

P. aeruginosa ATCC10145 = assay: Broth microdilution MIC / growth inhibition; format: cell-based, Pseudomonas aeruginosa; settings: 18 h at 37 °C, OD600nm; for MIC: P. aeruginosa ATCC10145, broth microdilution in MHB, at least three independent replicates, range 0.39–100 mg/L; for mean value of growth inhibition: P. aeruginosa
Experimental: as §1, §2, §3

B. cenocepacia IST4113 = assay: Broth microdilution MIC / growth inhibition; format: cell-based, Burkholderia cenocepacia; settings: 18 h at 37 °C, OD600nm; for MIC: broth microdilution in MHB, at least three independent replicates, range up to 200 mg/L
Experimental: as §1, §2, §3

B. cenocepacia IST439 = assay: Broth microdilution MIC / growth inhibition; format: cell-based, Burkholderia cenocepacia; settings: 18 h at 37 °C, OD600nm; for MIC: broth microdilution in MHB, at least three independent replicates, range up to 200 mg/L
Experimental: as §1, §2, §3

S. epidermidis isolate = assay: Broth microdilution MIC / growth inhibition; format: cell-based, Staphylococcus epidermidis; settings: 18 h at 37 °C; for MIC: S. epidermidis clinical isolate, broth microdilution in MHB, OD600nm, at least three independent replicates, range 0.39–100 mg/L; for growth inhibition (complete inhibition): S. epidermidis, within tested range 0.39–100 mg/L
Experimental: as §1, §2, §3

mammalian cells = settings: cited from earlier work
Source text: In this work, we report the use of A200 as a thermoresponsive protein tag for the production and purification of the following two AMPs, using Escherichia coli as a cell factory: ABP-CM4 (CM4), a 35 amino acid antimicrobial peptide, isolated from the haemolymph of the silkworm Bombyx mori; and Synoeca-MP (Synoeca), a 14 amino acid antimicrobial peptide, isolated from the venom of the Synoeca surinama wasp. CM4 is a member of the cecropin family of peptides, with antibacterial, antifungal, and antitumor activities, while showing no toxicity towards mammalian cells [[26],[28],[29], ...

Substance	MIC (E. coli HB101) [µg/mL]	growth inhibition (complete inhibition) (E. coli HB101) [%]	MIC (S. aureus ATCC6538) [µg/mL]	growth inhibition (complete inhibition) (S. aureus ATCC6538) [%]	MIC (K. pneumoniae isolate) [µg/mL]	MIC (P. aeruginosa ATCC10145) [µg/mL]	mean value of growth inhibition (P. aeruginosa ATCC10145; peptide 100.00 mg/L) [%]	MIC (B. cenocepacia IST4113) [µg/mL]	growth inhibition (B. cenocepacia IST4113; peptide 100.00 mg/L)	mean value of growth inhibition (B. cenocepacia IST4113; peptide 200.00 mg/L) [%]	MIC (B. cenocepacia IST439) [µg/mL]	growth inhibition (B. cenocepacia IST439; peptide 100.00 mg/L)	MIC (S. epidermidis isolate) [µg/mL]	growth inhibition (complete inhibition) (S. epidermidis isolate) [%]	toxicity towards mammalian cells (mammalian cells; mammalian cells)	mean value of growth inhibition (K. pneumoniae isolate; K. pneumoniae, within tested range 0.39–100 mg/L)	mean value of growth inhibition (P. aeruginosa ATCC10145; within tested range 0.39–100 mg/L)	cytotoxicity against mammalian cell lines (mammalian cells; mammalian cell lines)
ABP-CM4	50.00	100	3.13	100	50.00	>100.00	25	200.00	around 75%	100	~200.00	around 75%	12.50	100	no toxicity			
Synoeca-MP	25.00	100	1.56	100	>100.00	>100.00		12.50			12.50		6.25	100		lower than 5%	lower than 5%	no significant cytotoxicity

From publication PMC8541314, “Production and Purification of Two Bioactive Antimicrobial Peptides Using a Two-Step Approach Involving an Elastin-Like Fusion Tag” (Pharmaceuticals, 2021)
